From the supplement of paper PMC4862054
Values joined by “and” are separate entries in the source; they are usually repeats but may differ in a detail not shown here. Equal values may be shown once.

How the values were obtained:
Details in all cases: incubation time: 72 h
CAL-148 [1] = assay: normalised viability (% of control), CellTiter-Blue; higher = more viable cells (about 100 = DMSO control)
Description: (§1)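 DSRT, CellTiter-Blue viability, 72 h incubation. Signal is normalised to DMSO and benzethonium chloride controls. Value is the normalised response at dose 7.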

CAL-51 [2] = assay: as above
Description: as §1

CAL-85-1 [3] = assay: as above
Description: as §1

DU-4475 [4] = assay: as above
Description: as §1

HDQ-P1 [5] = assay: as above
Description: as §1

MDA-MB-453 [6] = assay: as above
Description: as §1

BT-549 = assay: normalised response (% of control), CellTiter-Glo; higher = more viable cells (100 = DMSO, 0 = benzethonium chloride kill control)
Method in brief: (§2)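 A 20 µl suspension of breast cancer cells was seeded into each well of 384-well plates containing compound at 5 concentrations in 10-fold steps over a compound-specific 10,000-fold range. After 72 h incubation, CellTox Green fluorescence (485/520 nm) was read first, and CellTiter-Glo luminescence was read after 10 min at room temperature. Each plate was normalised against 0.1 % DMSO (100) and a positive kill control (0), and each value is the normalised signal at one concentration.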

CAL-120 = assay: as above
Method in brief: as §2

CAL-148 [7] = assay: as above
Method in brief: as §2

CAL-51 [8] = assay: as above
Method in brief: as §2

CAL-85-1 [9] = assay: as above
Method in brief: as §2

DU-4475 [10] = assay: as above
Method in brief: as §2

HCC1143 = assay: as above
Method in brief: as §2

HCC1599 = assay: as above
Method in brief: as §2

HDQ-P1 [11] = assay: as above
Method in brief: as §2

Hs578T = assay: as above
Method in brief: as §2

MCF-10A = assay: as above
Method in brief: as §2

MDA-MB-231 = assay: as above
Method in brief: as §2

MDA-MB-436 = assay: as above
Method in brief: as §2

MDA-MB-453 [12] = assay: as above
Method in brief: as §2

MDA-MB-468 = assay: as above
Method in brief: as §2

MFM-223 = assay: as above
Method in brief: as §2

SMILES	normalised viability (CAL-148 [1])	normalised viability (CAL-51 [2])	normalised viability (CAL-85-1 [3])	normalised viability (DU-4475 [4])	normalised viability (HDQ-P1 [5])	normalised viability (MDA-MB-453 [6])	normalised response (BT-549)	normalised response (CAL-120)	normalised response (CAL-148 [7])	normalised response (CAL-51 [8])	normalised response (CAL-85-1 [9])	normalised response (DU-4475 [10])	normalised response (HCC1143)	normalised response (HCC1599)	normalised response (HDQ-P1 [11])	normalised response (Hs578T)	normalised response (MCF-10A)	normalised response (MDA-MB-231)	normalised response (MDA-MB-436)	normalised response (MDA-MB-453 [12])	normalised response (MDA-MB-468)	normalised response (MFM-223)
COc1ncc(-c2ccc3nccc(-c4ccnnc4)c3c2)cc1NS(=O)(=O)c1ccc(F)cc1F (100 nM)	25%	17.2%	30.5%	61.5%	22.3%	7.68%	27.1%	45.6%	42.5%	29.5%	31.8%	78.1%	38.2%	55.4%	25.5%	39%	31.8%	55%	46.7%	20.1%	37.9%	37%
CC(C)C[C@H](NC(=O)[C@H](Cc1ccccc1)NC(=O)c1cnccn1)B(O)O [Bortezomib] (100 nM)	18.2%	2.63%	5.3%	2.48%	1.22%	19.4%	1.75%	10.4%	22.6%	1.1%	1.51%	13%	10.9%	56.6%	3.18%	0.6%	68.6%	0.34%	2.39%	29.7%	0.63%	3.48%
CN1CCN(c2ccc3nc(-c4c(N)c5c(F)cccc5[nH]c4=O)[nH]c3c2)CC1 [Dovitinib] (1000 nM)	90.7%	116%	78.3%	94.7%	69.7%	91.4%	95.5%	92.1%	94.9%	115%	117%	101%	99.1%	106%	102%	101%	97.2%	101%	101%	92%	93.7%	95.4%
C#Cc1cccc(Nc2ncnc3cc(OC)c(OCCCCCCC(=O)NO)cc23)c1 [CUDC-101] (1000 nM)	47%	97.7%	24.9%	60.9%	50%	19.1%	66.9%	74.2%	60.3%	68.4%	6.55%	64.1%	48.9%	47.9%	70%	73.9%	28.9%	39.1%	73.7%	13.5%	18.8%	33.4%
CCS(=O)(=O)c1cccc(-c2cc(C(=O)NC3CCN(C)CC3)c(C)c3[nH]c4ncc(C)cc4c23)c1 [TAK-901] (100 nM)	40.3%	56.5%	70.4%	78.5%	87.2%	65%	82%	81.5%	45.6%	82.4%	103%	98.5%	77.2%	109%	86.2%	98.2%	80.2%	77.6%	97.2%	160%	38.5%	79.5%
Cn1cnc2c(F)c(Nc3ccc(Br)cc3F)c(C(=O)NOCCO)cc21 [MEK-162] (100 nM)	98.8%	101%	82.1%	25.7%	107%	112%	100%	94%	91.1%	104%	99.2%	42.6%	90.5%	104%	71.4%	86.2%	49%	92%	100%	104%	94.7%	102%
COc1c(C)cnc(Cn2cnc3c(Cl)nc(N)nc32)c1C [BIIB021] (1000 nM)	14.6%	26.1%	33.4%	0.09%	46.8%	6.04%	37.3%	53.6%	23.9%	19%	26.9%	0.4%	38.6%	54.3%	29.5%	55.5%	15.4%	25.5%	42.5%	27.8%	43.4%	40.2%
CCOc1cc2ncc(C#N)c(Nc3ccc(OCc4ccccn4)c(Cl)c3)c2cc1NC(=O)/C=C/CN(C)C [Neratinib] (100 nM)	101%	92.6%	94.9%	102%	120%	76%	97.5%	99%	83.4%	112%	67.9%	101%	98.8%	102%	69.8%	103%	43.1%	102%	95%	68%	82.8%	101%
O=c1[nH]cc(F)c(=O)[nH]1 [Fluorouracil] (1000 nM)	75.5%	102%	74.2%	105%	96.1%	91.7%	104%	106%	95.6%	110%	52.8%	90.2%	100%	84%	92.2%	97.1%	116%	97.7%	75.6%	121%	98.7%	102%
CS(=O)(=O)OCCCCOS(C)(=O)=O [Busulfan] (10000 nM)	120%	85.6%	108%	103%	88.2%	104%	97.3%	94.9%	102%	109%	98.2%	107%	99.1%	103%	98.3%	109%	98.9%	102%	101%	115%	109%	107%
CC(=O)O[C@H]1C(=O)[C@@]2(C)[C@H]([C@H](OC(=O)c3ccccc3)[C@]3(O)C[C@H](OC(=O)[C@H](O)[C@@H](NC(=O)c4ccccc4)c4ccccc4)C(C)=C1C3(C)C)[C@]1(OC(C)=O)CO[C@@H]1C[C@@H]2O [Paclitaxel] (100 nM)	20.8%	23.4%	31.8%	27.3%	33%	24.8%	15%	47.7%	39.6%	29.3%	20.9%	51.5%	30.7%	36.2%	60.4%	11.4%	33.5%	33.2%	28.1%	57.5%	21.7%	38.2%
COC1=C2C[C@@H](C)C[C@H](OC)[C@H](O)[C@@H](C)/C=C(\C)[C@H](OC(N)=O)[C@@H](OC)/C=C\C=C(/C)C(=O)NC(=CC1=O)C2=O [Geldanamycin] (1000 nM)	14.5%	26.2%	23.7%	0.05%	17.8%	7.25%	81.2%	102%	106%	96.2%	92.7%	91.4%	102%	99.6%	97.2%	103%	99.7%	97.9%	64.4%	96.6%	104%	40.4%
Cn1c(=O)c(F)c(Nc2ccc(I)cc2F)c2c(=O)n(C[C@@H](O)CO)cnc21 [TAK-733] (100 nM)	95%	77.7%	60.2%	0.99%	92%	89.1%	91.6%	76.7%	90.4%	64.6%	69.8%	1.33%	93.5%	93%	66.3%	96.5%	38.8%	78%	97.1%	123%	79.6%	98.8%
O=C(c1ccc(OCCN2CCCCC2)cc1)c1c(-c2ccc(O)cc2)sc2cc(O)ccc12 [Raloxifene] (1000 nM)	112%	91.5%	101%	86.2%	81.3%	97.1%	102%	96.3%	103%	121%	94.4%	103%	110%	99.8%	100%	107%	108%	107%	103%	103%	92.6%	95.6%
CS(=O)(=O)CCNCc1ccc(-c2ccc3ncnc(Nc4ccc(OCc5cccc(F)c5)c(Cl)c4)c3c2)o1 [Lapatinib] (1000 nM)	82.4% and 94%	105% and 94.6%	66.4% and 66.5%	94.5% and 86.5%		38% and 36.7%																
C[C@@H]1C=C2C(=O)O[C@@H]3CC[C@H](C1)[C@]23O [Galiellalactone] (5000 nM)	147%	105%	72.6%	118%	98%	73.7%	97.6%	103%	110%	71.9%	96.2%	102%	101%	98.4%	100%	111%	105%	114%	106%	105%	82%	104%
COC1=CC(c2cc3ccccc3[nH]2)=N/C1=C\c1[nH]c(C)cc1C [Obatoclax] (1000 nM)	78.3%	72.3%	57.5%	78.4%	41.6%	34%	77.3%	94.2%	81.5%	99.5%	76.6%	89.7%	87.4%	97.1%	97%	91.7%	92.8%	64%	89.7%	96.3%	83%	93.7%
